The values that follow come from ChEMBL document CHEMBL1136898, “Conformational analysis of N,N-disubstituted-1,4-diazepane orexin receptor antagonists and implications for receptor binding” (Bioorg Med Chem Lett, 2009).

What is called Ki is a measure of affinity in units of concentration, obtained from inhibition or displacement.

Assay [1] addresses T1, Orexin/Hypocretin receptor type 1 (Homo sapiens, UniProt O43613).
T1 sequence (O43613 whole entry): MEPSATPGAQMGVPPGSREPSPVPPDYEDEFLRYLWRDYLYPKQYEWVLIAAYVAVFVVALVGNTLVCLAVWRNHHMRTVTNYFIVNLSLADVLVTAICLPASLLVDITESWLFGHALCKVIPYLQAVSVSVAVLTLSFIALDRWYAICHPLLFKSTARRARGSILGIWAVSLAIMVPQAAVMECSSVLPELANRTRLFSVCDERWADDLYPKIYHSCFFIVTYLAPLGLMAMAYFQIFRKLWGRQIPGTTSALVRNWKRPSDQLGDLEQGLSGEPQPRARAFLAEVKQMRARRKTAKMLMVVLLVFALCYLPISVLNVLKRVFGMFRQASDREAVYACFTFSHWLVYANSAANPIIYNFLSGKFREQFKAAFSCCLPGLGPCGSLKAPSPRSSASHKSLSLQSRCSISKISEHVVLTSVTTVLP
The experiment in a line: Binding affinity to OX1 receptor.

The next assay has as its target T2, Orexin receptor type 2 (Homo sapiens, UniProt O43614).
T2 sequence (O43614 whole entry): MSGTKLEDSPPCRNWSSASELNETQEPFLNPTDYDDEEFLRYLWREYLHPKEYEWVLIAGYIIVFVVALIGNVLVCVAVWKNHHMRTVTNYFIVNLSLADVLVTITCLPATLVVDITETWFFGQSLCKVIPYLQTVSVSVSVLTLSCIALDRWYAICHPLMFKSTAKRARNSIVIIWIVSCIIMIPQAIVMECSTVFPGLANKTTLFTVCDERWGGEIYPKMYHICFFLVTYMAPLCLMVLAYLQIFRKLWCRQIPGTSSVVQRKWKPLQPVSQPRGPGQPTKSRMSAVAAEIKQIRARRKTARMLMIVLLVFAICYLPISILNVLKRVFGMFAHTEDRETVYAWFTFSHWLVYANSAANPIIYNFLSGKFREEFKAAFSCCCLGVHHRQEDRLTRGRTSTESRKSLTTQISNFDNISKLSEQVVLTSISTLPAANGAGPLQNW
In words: Binding affinity to OX2 receptor.

For the compound `Cc1ccc(-n2nccn2)c(C(=O)N2CCCN(c3ccc4ccccc4c3)CC2)c1`, the inhibition constant (Ki) (in assay [1]; at Orexin receptor type 2) was 2 nM each time.

Regarding `Cc1ccc(-n2nccn2)c(CN2CCCN(c3ncc4ccccc4n3)CC2)c1`, the inhibition constant (Ki) stood at 930 nM in assay [1] and 240 nM at Orexin receptor type 2.

Regarding `O=C(C1CCCCC1)N1CCCN(c2ncc3ccccc3n2)CC1`, the Ki in assay [1] was 9800 nM; on Orexin receptor type 2, 550 nM.

With `O=C1c2cc(ccc2-n2nccn2)CCCCCCc2ccc3cc(ccc3c2)N2CCCN1CC2`, the results for the inhibition constant (Ki) (in assay [1]; on Orexin receptor type 2) were 51 nM and 42 nM, respectively.
